Measured values taken from PMC7278776, “Multidrug Resistance Modulation Activity of Silybin Derivatives and Their Anti-Inflammatory Potential” (Antioxidants, 2020).
Where two headings read alike, the source gives them in different places.

How the values were obtained:
ABCG1 = ABCG1 mRNA expression (real-time PCR); format: cell-based, human; details: A2780/DOX
Procedure: (§1) The A2780/DOX cell line was seeded into 5 cm Petri dishes with DMEM medium at 1 × 10^5 cell/mL. After 24 h, the dishes were washed with PBS and new DMEM medium supplemented with doxorubicin (at concentration equal to IC25) and samples (10 µM) were added. After 48 h of treatment, the cells were washed with PBS and harvested using the standard trypsin-EDTA procedure. The harvested cells were centrifuged (3200× g; 10 min, 4 °C). The supernatant was discarded, and the pellets were washed with 1.5 mL of cooled PBS (5400× g; 10 min, 4 °C). The washing step was repeated with 1 mL of PBS and the cells were centrifuged again (10,000× g; 3 min, 4 °C). Afterwards, the pellets were resuspended in 1 mL of Trizol (Invitrogen, Carlsbad, CA, USA) and transferred into pre-cooled RNase-free microfuge tubes. The samples were stored at −80 °C.
(§2) A Quant-iT RiboGreen RNA Assay Kit (Invitrogen) was used to determine the RNA concentration using the Infinite M200 plate reader (Tecan, Männedor, Switzerland). The cDNA was prepared from 0.5 µg of total RNA using a RevertAid First Strand Synthesis cDNA Kit (MBI Fermentas, Vilnius, Lithuania). The amplification of the ubiquitin C gene fragment was used to determine the quality of cDNA.
(§3) The experiment was performed using the ViiA7 Real-Time polymerase chain reaction (PCR) System (Life Technologies, Camarillo, CA, USA) with a 384-well block. Before quantitative real-time PCR, the master mix was prepared by mixing 2 µL of 8 × diluted cDNA, 1.75 µL of RNase free water, 1 µL of 5 × HotFIREPol Probe quantitative PCR Mix Plus (Solis Biodyne, Tartu, Estonia) and 0.25 µL of specific 20 × TaqMan Gene Expression Assay (Life Technologies), giving 5 µL of final reaction volume. Cycling parameters were: initial hold at 50 °C for 2 min and denaturation at 95 °C for 10 min, followed by 45 cycles consisting of denaturation at 95 °C for 15 s and annealing/extension at 60 °C for 1 min. After each extension phase, the fluorescence values were acquired. Duplicate samples were used for measurement and samples with a standard deviation of duplicates > 1.0 cycle threshold (Ct) were re-analyzed. The real time PCR procedure was maintained according to MIQE (Minimum information for publication of quantitative real-time PCR experiments) guidelines. The software REST 2009 (Qiagen, Hilden, Germany) served to compare relative transcript levels of genes in the cell line.

ABCF2 [1] = assay: ABCF2 mRNA expression (real-time PCR); format: cell-based, human; details: A2780/DOX, 10 µM, 48 h, without doxorubicin
ABCB9 = ABCB9 mRNA expression (real-time PCR); format: cell-based, human; details: A2780/DOX, 10 µM, 48 h, without doxorubicin
ABCF2 [2] = assay: ABCF2 mRNA expression (real-time PCR); format: cell-based, human; details: A2780/DOX, 10 µM combined with doxorubicin at IC25, 48 h
Procedure: as §1, §2, §3

ABCA3 = ABCA3 mRNA expression (real-time PCR); format: cell-based, human; details: A2780/DOX
Procedure: as §1, §2, §3

ABCF1 = ABCF1 mRNA expression (real-time PCR); format: cell-based, human; details: A2780/DOX
Procedure: as §1, §2, §3

[3] = Viability of A2780/DOX cells (resazurin); details: human
Procedure: To determine the NO production, the medium was mixed with Griess reagent (0.04 g/mL, prepared in deionized water) in a 1:1 ratio. After 15 min, absorbance was recorded at 540 nm. To determine cell viability, the resazurin solution (0.03 mg/mL in PBS) was added to the cells. After 2 h of incubation, fluorescence was recorded (560/590 nm, ex./em.).
A multidrug resistant ovarian sub-line resistant to doxorubicin (A2780/DOX, Sigma-Aldrich) was cultivated in DMEM medium with 10% FBS and 1 × antibiotic antimycotic solution. Every other passage, doxorubicin at the final concentration of 0.1 µM was added to the culture medium to maintain the resistance of the cell line. To perform experiments, the cells were seeded at 1 × 10^5 cell/mL into the wells of a 96-well plate and incubated for 24 h. Afterwards, the cells were washed with PBS and fresh DMEM medium with tested compounds at 10, 20 and 30 µM were added to each well, except for the control wells. Subsequently, the cells were exposed to increasing concentrations of doxorubicin (0.6–20 µM) for 72 h. After incubation, the resazurin assay was performed as described above. The IC50 of doxorubicin was calculated for both the control and the samples and the fold change was counted up. […] The fold change lower than 1 means an antagonistic effect. (1) FOLD CHANGE=IC50 value of DOX cells treated with chemotherapeutic /IC50 value of DOX cells treated with chemotherapeutic and compound

ABCB2 = ABCB2 mRNA expression (real-time PCR); format: cell-based, human; details: A2780/DOX, 10 µM, 48 h, without doxorubicin
ABCA2 = ABCA2 mRNA expression (real-time PCR); format: cell-based, human; details: 10 µM, 48 h, without doxorubicin; for ABCA2 Expression Difference / ABCA2 Treated vs. Untreated: A2780/DOX
HepG2 cells = assay: CAA (cellular antioxidant activity) assay; format: cell-based; details: Homo sapiens
Procedure: For the CAA assay, human hepatocellular carcinoma HepG2 cells (ATCC, Manassas, VA, USA) were seeded into a 96-well microplate at a density of 1 × 10^5 cells/well in EMEM medium supplemented with 10% of FBS, 2 mM L-glutamine and 1 × antibiotic antimycotic solution. The cells were maintained in a CO2 incubator (5% CO2, 37 °C, Memmert GmbH & Co, Büchenbach, Germany). The following day, the plates were washed with PBS and new fresh DMEM was added into each well supplemented with tested samples in the concentration range of 6.25–100 µM and fluorescent probe DCFH-DA (12.5 mg/L). After 1 h of incubation at 37 °C, the medium was replaced with AAPH solution (0.16 mg/mL in PBS), except for the negative control, where PBS was added instead. Directly, the fluorescence was recorded for 2 h in 5 min steps at 485/540 nm excitation/emission (ex./em.).

ABCE1 = ABCE1 mRNA expression (real-time PCR); format: cell-based, human; details: A2780/DOX, 10 µM, 48 h, without doxorubicin
Procedure: as §1, §2, §3

ABCC5 = ABCC5 mRNA expression (real-time PCR); format: cell-based, human; details: A2780/DOX, 10 µM, 48 h, without doxorubicin
[4] = 10 µM combined with doxorubicin at IC25, 48 h
[5] = HepG2, read-out: CAA, concentration necessary to halve the fluorescence response (IC50)
[6] = 10 µM, 48 h, without doxorubicin
[7] = HepG2, DCFH-DA/AAPH, read-out: CAA, concentration necessary to halve the fluorescence response (IC50)

Row | SMILES | ABCG1 Expression Difference (ABCG1; [4]) | ABCF2 Expression Difference (ABCF2 [1]) | ABCB9 Expression Difference (ABCB9) | ABCF2 Expression Difference (ABCF2 [2]) | ABCA3 Expression Difference (ABCA3; [4]) | ABCF1 Expression Difference (ABCF1; [4]) | ABCB2 Expression Difference (ABCB2) | downregulation of ABCA2 expression (ABCA2) [%] | ABCA2 Expression Difference (ABCA2) | ABCA2 Treated vs. Untreated (ABCA2) | IC50 (HepG2 cells; [5]) [µM] | ABCE1 Expression Difference (ABCE1) | ABCG1 Expression Difference (ABCG1; [6]) | ABCF1 Expression Difference (ABCF1; [6]) | ABCF1 Treated vs. Untreated (ABCF1; [6]) | ABCC5 Expression Difference (ABCC5) | IC50 (HepG2 cells; [7]) [µM] | viability at 20 µM [3] [%] | other results
1 | COc1cc([C@H]2Oc3cc(-c4oc5cc(O)cc(O)c5c(=O)c4O)ccc3O[C@@H]2CO)ccc1O [Dehydrosilybin A, 2,3-dehydrosilybin A] | 2.714 | 1.198 | 1.317 | 1.044 | 1.042 | 0.920 | 1.905 | 22 | 0.778 | DOWN | 11.8 ± 0.7 |  |  |  |  |  |  |  | viability at 50 µM [3]: < 80%
2 | COc1cc([C@@H]2Oc3cc([C@H]4Oc5cc(O)cc(O)c5C(=O)[C@@H]4O)ccc3O[C@H]2CO)ccc1O [Silybin B, silybin B] |  | 0.307 | 0.392 |  | 0.794 |  |  |  | 0.520 | DOWN |  | 0.391 | 0.303 | 0.260 | DOWN | 0.365 | 8.9 ± 0.3 |  | ABCE1 Treated vs. Untreated (ABCE1): DOWN; ABCG1 Treated vs. Untreated (ABCG1; [6]): DOWN; ABCF2 Treated vs. Untreated (ABCF2 [1]): DOWN; ABCB9 Treated vs. Untreated (ABCB9): DOWN; ABCA3 Treated vs. Untreated (ABCA3; [4]): DOWN; ABCA3 Expression Difference (ABCA3; [6]): 0.228; ABCA3 Treated vs. Untreated (ABCA3; [6]): DOWN; ABCC5 Treated vs. Untreated (ABCC5): DOWN
3 | COc1cc(C2Oc3cc(-c4oc5cc(O)cc(O)c5c(=O)c4O)ccc3OC2CO)ccc1O (centres unmarked) [Dehydrosilybin AB, 2,3-dehydrosilybin] | 1.826 | 1.418 | 1.669 | 1.343 | 0.943 | 0.923 | 2.341 |  |  |  | 9.2 ± 0.5 | 1.408 |  | 0.322 | DOWN | 1.519 |  | < 80 | 
4 | COc1cc([C@@H]2Oc3cc(-c4oc5cc(O)cc(O)c5c(=O)c4O)ccc3O[C@H]2CO)ccc1O [Dehydrosilybin B, 2,3-dehydrosilybin B] | 2.931 | 1.334 |  | 1.226 | 1.060 | 0.784 | 1.625 | 11 | 0.891 | DOWN | 12.1 ± 0.4 |  |  |  |  |  |  | < 80 | 
5 | COc1cc([C@H]2Oc3cc([C@H]4Oc5cc(O)cc(O)c5C(=O)[C@@H]4O)ccc3O[C@@H]2CO)ccc1O [Silybin A, silybin A] |  |  |  | 1.242 |  |  | 1.141 |  | 1.078 |  |  |  |  |  |  |  | 9.8 ± 0.4 |  | 
6 | COc1cc(C2Oc3cc([C@H]4Oc5cc(O)cc(O)c5C(=O)[C@@H]4O)ccc3OC2CO)ccc1O (some centres unmarked) [Silybin AB, silybin] | 1.559 | 1.326 | 2.091 | 1.463 | 1.142 | 0.137 |  |  | 2.583 |  |  | 1.558 | 2.416 |  |  | 1.819 | 10.7 ± 0.9 |  | ABCF1 Treated vs. Untreated (ABCF1; [4]): DOWN
